Results taken from patent US11267797B2, “Anticancer agent” (Kyoto Pharmaceutical Industries, Ltd., priority 2014, dated 2022).
Where a name gives a salt, the structure may show the parent alone.

Assay: Blood concentration after oral administration to rat or dog
Format: in vivo
Conditions: gavage to male SD rat or male beagle, suspended in 0.5% methylcellulose, 30 mg/kg or 100 mg/kg, respectively, HPLC or LC-MS/MS; for blood concentration of compound (A) after administration of the Example compound: 0.25-24 hr
Method: Experimental Example 2: Blood Concentration after Oral Administration to Rat or Dog
Compound (A) or Example compound suspended in 0.5% methylcellulose solution was administered by gavage to male SD rat or male beagle at a dose of 30 mg/kg or 100 mg/kg, respectively. At 0.25, 0.5, 1, 2, 4, 6 and 24 hr after administration, blood samples were collected from the cervical vein with a 1 mL syringe and was added in a 2.0 mL tube to which heparin was added. The blood was treated with acetonitrile, and the blood concentration of compound (A) was determined by using HPLC or LC-MS/MS.

Compound | blood concentration of compound (A) after administration of the Example compound | maximum blood concentration of compound (A), compared with administration of compound (A) itself
O=C(/C=C(\O)c1cc2c(o1)C(=O)c1ccccc1C2=O)OCCO [Example 13, 2-Hydroxyethyl 3-(4,9-dioxo-4,9-dihydro-naphtho[2,3-b]furan-2-yl)-3-hydroxy-acrylate Ethanolamine Salt] | emerged in the blood over time | higher
COCC(C)(C)C(=O)OC(C)OC(=O)CC(=O)c1cc2c(o1)C(=O)c1ccccc1C2=O (stereo not drawn) [Example 54] | emerged in the blood over time | higher
O=C(CC(=O)c1cc2c(o1)C(=O)c1ccccc1C2=O)OCOC(=O)C(O)CO (stereo not drawn) [Example 60] | emerged in the blood over time | higher
CC(OC(=O)CC(=O)c1cc2c(o1)C(=O)c1ccccc1C2=O)OC(=O)OC[C@@H](O)CO (stereo partly drawn) [Example 65] | emerged in the blood over time | higher
CC(OC(=O)CC(=O)c1cc2c(o1)C(=O)c1ccccc1C2=O)OC(=O)OCC1COC(C)(C)O1 (stereo not drawn) [Example 66] | emerged in the blood over time | higher
C[C@H](N)C(=O)OCCOC(=O)CC(=O)c1cc2c(o1)C(=O)c1ccccc1C2=O.Cl [Example 74] | emerged in the blood over time | higher
N[C@@H](CO)C(=O)OCCOC(=O)CC(=O)c1cc2c(o1)C(=O)c1ccccc1C2=O [Example 75] | emerged in the blood over time | higher
COCCOC(=O)CC(=O)c1cc2c(o1)C(=O)c1ccccc1C2=O [Example 79] | emerged in the blood over time | higher
O=C(/C=C(\[O-])c1cc2c(o1)C(=O)c1ccccc1C2=O)OCC(O)CO.[Na+] (stereo not drawn) [Example 88] | emerged in the blood over time | higher
CCN(CC)CC#CCOC(=O)CC(=O)c1cc2c(o1)C(=O)c1ccccc1C2=O.Cl [Example 93] | emerged in the blood over time | higher
O=C(/C=C(\O)c1cc2c(o1)C(=O)c1ccccc1C2=O)OCC(O)CO (stereo not drawn) [Example 95] | emerged in the blood over time | higher
CC(C)N1CC(OC(=O)CC(=O)c2cc3c(o2)C(=O)c2ccccc2C3=O)C1.Cl [Example 114] | emerged in the blood over time | higher
Cl.O=C(CC(=O)c1cc2c(o1)C(=O)c1ccccc1C2=O)OCC#CCN1CCCC1 [Example 116] | emerged in the blood over time | higher
CC(C)[C@H](N)C(=O)OCCCOC(=O)CC(=O)c1cc2c(o1)C(=O)c1ccccc1C2=O.Cl [Example 120] | emerged in the blood over time | higher
O=C(/C=C(\O)c1cc2c(o1)C(=O)c1ccccc1C2=O)OCCOCCO [Example 125] | emerged in the blood over time | higher
O=C(/C=C(\O)c1cc2c(o1)C(=O)c1ccccc1C2=O)OCC(CO)CO [Example 126] | emerged in the blood over time | higher
O=C(/C=C(\O)c1cc2c(o1)C(=O)c1ccccc1C2=O)OCCOCC(O)CO (stereo not drawn) [Example 129] | emerged in the blood over time | higher
O=C(/C=C(\O)c1cc2c(o1)C(=O)c1ccccc1C2=O)OCCCO [Example 133] | emerged in the blood over time | higher
